# Literature values as cited in PMC5693832 (Ophthalmology and Therapy, 2017).
# Legend:
# [1] = tested on: IOP in healthy Japanese subjects; conditions: 0.024% once daily for 14 days
# [2] = tested on: diurnal IOP in POAG or OHT patients; conditions: 0.006% to 0.040%, 28 days
# IOP = conditions: 0.024%, summary of the clinical trials
# [3] = tested on: IOP in Japanese subjects with POAG or OHT; conditions: 0.024% every evening
# [4] = tested on: IOP over a 24-h diurnal time period; conditions: for IOP reduction over the 24 h period, in words: 24-h diurnal period
# platelets = conditions: humans
SMILES,most common adverse events [1],severity of adverse events [1],"adverse events (pupil dilation, blurred vision) [2]","efficacy (change from baseline mean diurnal IOP), dose relation [2]",additional IOP reduction versus latanoprost and timolol monotherapy (IOP),IOP (SD) at 52 weeks [3],IOP reduction by 52 weeks from baseline ([3]; baseline 19.6 (2.9) mmHg),"IOP reduction over the 24 h period, in words [4]","post treatment mean IOP (SD), nighttime ([4]; nighttime, baseline 25.7 (3.8) mmHg)",NO release after oral administration (platelets)
O=C(CCC/C=C\C[C@@H]1[C@@H](CC[C@@H](O)CCc2ccccc2)[C@H](O)C[C@@H]1O)OCCCCO[N+](=O)[O-] [latanoprostene bunod],punctate keratitis and conjunctival hyperemia,mild,neither pupil dilation nor blurred vision were reported as adverse events,dose-dependent,1–2 mmHg,14.4 (2.7) mmHg,26%,sustained IOP reduction during the 24 h period,23.2 (3.4) mmHg,
"CC(=O)Oc1ccccc1C(=O)Oc1cccc(CO[N+](=O)[O-])c1 [NCX 4016, 2-(acetyloxy)benzoic acid-3-[(nitrooxy)methyl]phenyl ester]",,,,,,,,,,capable of releasing NO
CC(C)(C)NC[C@H](O)COc1nsnc1N1CCOCC1 [timolol],,,,,,,,primarily effective during the daytime,,
